Laboratory results as given in patent US20100022629A1, “Dietary Methods and Compositions for Enhancing Metabolism and Reducing Reactive Oxygen Species” (Elixirin, priority 2006, published 2010).

Columns and labels:
[1] = test system: men and women diagnosed with a recent MI; conditions: 4 grams/day for 12 months plus standard pharmacological treatment; control group 12.5%; cited from earlier work
[2] = test system: 8-hydroxy-2′-deoxyguanosine/8-hydroxyguanosine; assay: Oxidation level of DNA in hippocampus sections (anti-8-hydroxy-2′-deoxyguanosine/8-hydroxyguanosine immunocytochemistry); assay type: in vivo, rats; conditions: rat hippocampus, fed 7 weeks, mean of 5 animals, SD about 15%
Source text: The rats in the experimental group (5 each) were fed either 0.5% (wt/vol) acetyl-L-carnitine in water, 1.0% (wt/vol) polyphenol in water; 0.2% (wt/wt) lipoic acid in AIN93M diet, or a combination of the above. Rats were acclimated for one week before experiments. Rats were fed for the above treatment for 7 weeks before tests. Control rats were fed with water and AIN93M diet only. For assaying DNA oxidation, rats from each treatment group (5 animals per group) was anesthetized with ether and perfused with paraformaldehyde. The brain was removed and postfixed for paraffin sections. Sections of hippocampus were incubated with anti-8-hydroxy-2′-deoxyguanosine/8-hydroxyguanosine and visualized by using standard immunocytochemical methods. Quantification of oxidation was done as described in Liu, J K, et al., (Proc. Natl. Acad. Sci. USA, 99:[…], 2002). Values are a mean of 5 animals. The standard deviation is about 15%.

[3] = test system: Fischer 344 male rats; assay: Morris water maze spatial memory test; assay type: in vivo; conditions: fed 7 weeks, 5 per group, SD around 20%
Source text: FIG. 1 of 2 depicts measurements of spatial memory in (Fischer 344 male rats) subjected to a water maze test, after treatment with carnitine, lipoic acid, and/or polyphenol. […] The Morris maze task tests spatial memory by requiring rats to find a submerged platform in a pool of water using external visual cues (Morris, R. 1984; J. Neurosci. Methods, 11:47-60; Schenk, F. and Morris, R, Exp. Brain Res. 58:11-28, 1985). The rats in the experimental group (5 each) were fed either 0.5% (wt/vol) acetyl-L-carnitine in water, 1.0% (wt/vol) polyphenol in water; 0.2% (wt/wt) lipoic acid in AIN93M diet, or a combination of the above. Rats were acclimated for one week before experiments. Rats were fed for the above treatment for 7 weeks before tests. Trials (4 consecutive days, 4 trials per day) were conducted and the results averaged. The standard deviation is around 20%. Control rats were fed with water and AIN93M diet only.

Row | Structure (SMILES) | mortality after one year of treatment [1] [%] | DNA oxidation level compared with rats having no treatment [2] | mastery of the water maze over no treatment [3]
1 | C[N+](C)(C)C[C@H](O)CC(=O)[O-] [L-carnitine] | 1.2 | – | –
2 | C[N+](C)(C)CC(O)CC(=O)[O-] (centres unmarked) [carnitine] | – | approximately 112% | approximately 80%
3 | O=C(O)CCCCC1CCSS1 (centres unmarked) [lipoic acid, 1,2-dithiolane-3-pentanoic acid] | – | ~82% | ~79%
